Data as given in ChEMBL document CHEMBL3616451, “Design and synthesis of 11α-substituted bile acid derivatives as potential anti-tuberculosis agents” (Bioorg Med Chem Lett, 2015).
In brackets after ≈: the same amount, converted by molar mass. Activity calls are given as the source filed them. The calls are words filed in the database; no cut-off is given here.

How the values were obtained:
[1] = test system: Bacillus subtilis; test: Antibacterial activity against Bacillus subtilis ATCC 23857 assessed as growth inhibition at 30 ug/ml relative to control; format: functional
[2] = test system: Mycobacterium tuberculosis; test: Anti-tubercular activity against rifampicin, isoniazid, ethambutol and pyrazinamide-sensitive Mycobacterium tuberculosis H37Ra ATCC 25177 assessed as growth inhibition at 3 ug/ml by XRMA method relative to control; format: functional; conditions: for inhibition of growth at 3 µg/mL: read-out: GI
[3] = test system: Mycobacterium tuberculosis; test: Anti-tubercular activity against rifampicin, isoniazid, ethambutol and pyrazinamide-sensitive Mycobacterium tuberculosis H37Ra ATCC 25177 assessed as growth inhibition at 10 ug/ml by XRMA method relative to control; format: functional; conditions: read-out: GI
[4] = test system: Pseudomonas fluorescens; test: Antibacterial activity against Pseudomonas fluorescens ATCC 13525 assessed as growth inhibition at 30 ug/ml relative to control; format: functional; conditions: read-out: GI
[5] = test system: Mycobacterium tuberculosis; test: Anti-tubercular activity against rifampicin, isoniazid, ethambutol and pyrazinamide-sensitive Mycobacterium tuberculosis H37Ra ATCC 25177 assessed as growth inhibition at 30 ug/ml by XRMA method relative to control; format: functional; conditions: read-out: GI
[6] = test system: Staphylococcus aureus; test: Antibacterial activity against Staphylococcus aureus ATCC 29213 assessed as growth inhibition at 30 ug/ml relative to control; format: functional
[7] = test system: Escherichia coli; test: Antibacterial activity against Escherichia coli […] assessed as growth inhibition at 30 ug/ml relative to control; format: functional; conditions: read-out: GI
[8] = (§1) Cytotoxicity against human A549 cells after 48 hrs by MTT assay; format: cell-based; conditions: A549 cells
[9] = test system: A549; test: as §1; format: cell-based; conditions: a549, 48 h
[10] = (§2) Cytotoxicity against human THP1 cells after 48 hrs by MTT assay; format: cell-based, THP-1; conditions: THP-1 cells
[11] = test system: THP-1; test: as §2; format: cell-based; conditions: thp-1, 48 h
[12] = test system: Mycobacterium tuberculosis; test: Anti-tubercular activity against rifampicin, isoniazid, ethambutol and pyrazinamide-sensitive dormant phage of Mycobacterium tuberculosis H37Ra ATCC 25177 infected in human THP1 cells by neutral red assay; format: functional, organism-based; conditions: H37Ra ATCC 25177, THP-1
[13] = Cytotoxicity against human PANC1 cells after 48 hrs by MTT assay; format: cell-based, PANC-1; conditions: for GI50 at 48 h: PANC-1 cells; for GI90: panc-1, 48 h
[14] = test system: Mycobacterium tuberculosis; test: Anti-tubercular activity against rifampicin, isoniazid, ethambutol and pyrazinamide-sensitive active phage of Mycobacterium tuberculosis H37Ra ATCC 25177 infected in human THP1 cells by neutral red assay; format: functional, organism-based; conditions: H37Ra ATCC 25177, THP-1
[15] = test system: Mycobacterium tuberculosis; test: Anti-tubercular activity against rifampicin, isoniazid, ethambutol and pyrazinamide-sensitive active phage of Mycobacterium tuberculosis H37Ra ATCC 25177 by serial dilution method; format: functional, organism-based
[16] = test system: Mycobacterium tuberculosis; test: Anti-tubercular activity against rifampicin, isoniazid, ethambutol and pyrazinamide-sensitive dormant phage of Mycobacterium tuberculosis H37Ra ATCC 25177 by serial dilution method; format: functional, organism-based

COC(=O)CC[C@@H](C)[C@H]1CC[C@H]2[C@H]3[C@H]([C@H](NC(=O)[C@H]4CCCN4)C(=O)[C@]12C)[C@@]1(C)CC[C@@H](OC(C)=O)C[C@H]1C[C@H]3OC(C)=O
growth inhibition (GI) [1]: inactive | inhibition of growth at 3 µg/mL [2]: 55% | inhibition of growth at 10 µg/mL [3]: 66% | inhibition of growth at 30 µg/mL [4]: 20.1% | inhibition of growth at 30 µg/mL [5]: 71% | growth inhibition (GI) [6]: inactive | inhibition of growth at 30 µg/mL [7]: 23.9%

COC(=O)CC[C@@H](C)[C@H]1CC[C@H]2[C@H]3[C@H]([C@H](N)C(=O)[C@]12C)[C@@]1(C)CC[C@@H](OC(C)=O)C[C@H]1C[C@H]3OC(C)=O
growth inhibition (GI) [2]: inactive | inhibition of growth at 10 µg/mL [3]: < 1% | inhibition of growth at 30 µg/mL [5]: < 1%

COC(=O)CC[C@@H](C)[C@H]1CC[C@H]2[C@H]3[C@H]([C@H](NC(=O)[C@H]4CCCN4C(=O)OC(C)(C)C)C(=O)[C@]12C)[C@@]1(C)CC[C@@H](OC(C)=O)C[C@H]1C[C@H]3OC(C)=O
growth inhibition (GI) [1]: inactive | GI50 at 48 h [8]: 52 µg/mL (≈ 72.5 µM) | GI90 [9]: > 100 µg/mL | inhibition of growth at 3 µg/mL [2]: 66% | inhibition of growth at 10 µg/mL [3]: 80% | inhibition of growth at 30 µg/mL [4]: 61.5% | inhibition of growth at 30 µg/mL [5]: 94% | GI50 at 48 h [10]: 46 µg/mL (≈ 64.1 µM) | GI90 [11]: > 100 µg/mL | IC50 [12]: 1.32 µg/mL (≈ 1.84 µM) | IC90 [12]: 23.8 µg/mL (≈ 33.3 µM) | GI50 at 48 h [13]: 15 µg/mL (≈ 20.9 µM) | GI90 [13]: > 100 µg/mL | growth inhibition (GI) [6]: inactive | IC50 [14]: 1.96 µg/mL (≈ 2.73 µM) | IC90 [14]: 27.3 µg/mL (≈ 38.1 µM) | IC50 [15]: 3.62 µg/mL (≈ 5.05 µM) | IC90 [15]: 27.5 µg/mL (≈ 38.3 µM) | inhibition of growth at 30 µg/mL [7]: 26.8% | IC50 [16]: 2.25 µg/mL (≈ 3.14 µM) | IC90 [16]: 27 µg/mL (≈ 37.7 µM)

COC(=O)CC[C@@H](C)[C@H]1CC[C@H]2[C@H]3[C@H]([C@H](n4cc(-c5ccccn5)nn4)C(=O)[C@]12C)[C@@]1(C)CC[C@@H](OC(C)=O)C[C@H]1C[C@H]3OC(C)=O
growth inhibition (GI) [1]: inactive | inhibition of growth at 3 µg/mL [2]: 38% | inhibition of growth at 10 µg/mL [3]: 48% | inhibition of growth at 30 µg/mL [4]: 47.1% | inhibition of growth at 30 µg/mL [5]: 71% | growth inhibition (GI) [6]: inactive | inhibition of growth at 30 µg/mL [7]: 32.1%

COC(=O)CC[C@@H](C)[C@H]1CC[C@H]2[C@H]3[C@H]([C@H](n4nnc5ccccc54)C(=O)[C@]12C)[C@@]1(C)CC[C@@H](OC(C)=O)C[C@H]1C[C@H]3OC(C)=O
inhibition of growth at 30 µg/mL ([1]; read-out: GI): 8.94% | GI50 at 48 h [8]: 20 µg/mL (≈ 32.2 µM) | GI90 [9]: > 100 µg/mL | inhibition of growth at 3 µg/mL [2]: 76% | inhibition of growth at 10 µg/mL [3]: 94% | inhibition of growth at 30 µg/mL [4]: 46.8% | inhibition of growth at 30 µg/mL [5]: 96% | GI50 at 48 h [10]: 29.9 µg/mL (≈ 48.1 µM) | GI90 [11]: > 100 µg/mL | IC50 [12]: 1.65 µg/mL (≈ 2.65 µM) | IC90 [12]: 8.16 µg/mL (≈ 13.1 µM) | GI50 at 48 h [13]: 50 µg/mL (≈ 80.4 µM) | GI90 [13]: > 100 µg/mL | growth inhibition (GI) [6]: inactive | IC50 [14]: 1.11 µg/mL (≈ 1.79 µM) | IC90 [14]: 8.6 µg/mL (≈ 13.8 µM) | IC50 [15]: 1.08 µg/mL (≈ 1.74 µM) | IC90 [15]: 9.79 µg/mL (≈ 15.7 µM) | inhibition of growth at 30 µg/mL [7]: 33.8% | IC50 [16]: 1.27 µg/mL (≈ 2.04 µM) | IC90 [16]: 7.15 µg/mL (≈ 11.5 µM)

CO[C@H]1/C=C/O[C@@]2(C)Oc3c(C)c(O)c4c(O)c(c(/C=N/N5CCN(C)CC5)c(O)c4c3C2=O)NC(=O)/C(C)=C\C=C\[C@H](C)[C@H](O)[C@@H](C)[C@@H](O)[C@@H](C)[C@H](OC(C)=O)[C@@H]1C [RIFAMPIN]
IC50 [12]: 0.0018 µg/mL (≈ 0.00219 µM) | IC90 [12]: 0.048 µg/mL (≈ 0.0583 µM) | IC50 [14]: 0.0021 µg/mL (≈ 0.00255 µM) | IC90 [14]: 0.051 µg/mL (≈ 0.062 µM) | IC50 [15]: 0.0018 µg/mL (≈ 0.00219 µM) | IC90 [15]: 0.048 µg/mL (≈ 0.0583 µM) | IC50 [16]: 0.0014 µg/mL (≈ 0.0017 µM) | IC90 [16]: 0.043 µg/mL (≈ 0.0523 µM)

COC(=O)CC[C@@H](C)[C@H]1CC[C@H]2[C@@H]3[C@H](OC(C)=O)C[C@@H]4C[C@H](OC(C)=O)CC[C@]4(C)[C@H]3CC(=O)[C@]12C
inhibition of growth at 3 µg/mL [2]: 13% | inhibition of growth at 10 µg/mL [3]: 28% | inhibition of growth at 30 µg/mL [5]: 34%

CC(=O)O[C@H]1C(=O)[C@@]2(C)[C@H]([C@H](OC(=O)c3ccccc3)[C@]3(O)C[C@H](OC(=O)[C@H](O)[C@@H](NC(=O)c4ccccc4)c4ccccc4)C(C)=C1C3(C)C)[C@]1(OC(C)=O)CO[C@@H]1C[C@@H]2O [PACLITAXEL]
GI50 at 48 h [8]: 0.0035 µg/mL (≈ 0.0041 µM) | GI90 [9]: 0.0706 µg/mL (≈ 0.0827 µM) | GI50 at 48 h [10]: 0.137 µg/mL (≈ 0.161 µM) | GI90 [11]: 5.814 µg/mL (≈ 6.81 µM) | GI50 at 48 h [13]: 0.128 µg/mL (≈ 0.15 µM) | GI90 [13]: 5.715 µg/mL (≈ 6.69 µM)

NNC(=O)c1ccncc1 [ISONIAZID]
IC50 [12]: 0.0024 µg/mL (≈ 0.0175 µM) | IC90 [12]: 0.0078 µg/mL (≈ 0.0569 µM) | IC50 [14]: 0.0024 µg/mL (≈ 0.0175 µM) | IC90 [14]: 0.075 µg/mL (≈ 0.547 µM) | IC50 [15]: 0.0019 µg/mL (≈ 0.0139 µM) | IC90 [15]: 0.074 µg/mL (≈ 0.54 µM) | IC50 [16]: 0.0023 µg/mL (≈ 0.0168 µM) | IC90 [16]: 0.075 µg/mL (≈ 0.547 µM)
